Test results: US20160320368A1, “METHOD AND APPARATUS FOR PREDICTING EFFECTIVE DOSE OR SENSITIVITY OF 5-HYDROXY-1H-IMIDAZOLE-4-CARBOXAMIDE, METHOD FOR DETERMINING AMOUNT OF XANTHOSINE MONOPHOSPHATE, AND TREATMENT AGENT AND METHOD FOR TREATING MYELODYSPLASTIC SYNDROME” (FUJIFILM Corporation, priority 2014, published 2016)

Experiments:
GMP in whole blood = GMP in whole blood (Example 8); format: cell-based, human; details: 37° C., 8 hours, non-treated = 100%
Procedure: (§1) A ¾ hydrate of Compound A was used as a test compound.
450 μL of the blood collected from healthy individuals by heparinized blood collection was added to each tube, and 50 μL of a PBS solution of the test compound (0 μg/mL, 1 μg/mL, 10 μg/mL, or 100 μg/mL in terms of Compound A) for each concentration was added to each tube. The reaction mixture was stirred in an incubator at 37° C. for 8 hours.
400 μL of methanol was added to 100 μL of the blood sample obtained in (1). After stirring, 400 μL of chloroform was added, followed by further stirring. 120 μL of ultrapure water was added thereto, followed by stirring and then centrifugation at 4° C. and 10000×g for 15 min. 400 μL of the aqueous phase was recovered and added to an ultrafiltration tube, followed by centrifugation at 12° C. and 9200×g for 2 hours. The filtrate was dried under reduced pressure at 40° C. for 2 hours by using a centrifugal evaporator. After drying, the resulting product was stored in a freezer at −80° C.
The samples obtained in (2) were returned to room temperature and 40 μL of ultrapure water was added to each sample. The mixture was stirred and centrifuged at 4° C. and 21500×g for 5 min. 35 μL of the supernatant was transferred to a vial. After storage at 4° C., XMP, GMP and GTP in the samples were determined in the LC-MS/MS determination instrument and LC conditions described in Example 3 (3), and MS/MS conditions shown in Table 15.
Amounts of XMP, GMP and GTP (%) were calculated assuming that the XMP, GMP and GTP values of a non-Compound A treated group (peak area value) are defined as 100%.

[1] = test system: XMP in human myeloid leukemia cells SKM-1; assay: XMP in human myeloid leukemia cells SKM-1 (LC-MS/MS); format: cell-based; details: 24 hours; for Amount of XMP (%): non-treated = 100%; for Decline rate of XMP: 100−amount of XMP (%)
Procedure: as §1
SKM-1 was used as a human myeloid leukemia cell.
2×10^7 human myeloid leukemia cells were suspended in a culture flask containing 18 mL of an RPMI1640 medium (manufactured by Life Technologies, Inc.). 2 mL of a PBS solution of the test compound (0 μg/mL, 10 μg/mL, 30 μg/mL, 100 μg/mL, 300 μg/mL, or 1000 μg/mL in terms of Compound A) was added to the flask which was then incubated at 37° C. under 5% CO2 for 24 hours. After centrifugation at 20° C. and 300×g for 3 min, the supernatant was removed and suspended in 10 mL of a PBS solution. 10 μL of the suspension was aliquoted and cells were counted using TC10 (manufactured by BioRad). After centrifugation and 300×g for 5 min, the supernatant was removed. After stirring with addition of 1000 μL of methanol, 500 μL of ultrapure water was added thereto, followed by further stirring. 600 μL of the reaction solution was divided into each of two tubes, and 400 μL of chloroform was added to each tube. The reaction solution was stirred and then centrifuged at 4° C. and 10000×g for 15 min. 400 μL of the aqueous phase was recovered and added to an ultrafiltration tube, followed by centrifugation at 12° C. and 9200×g for about 2 hours. The filtrates were pooled in one tube and then dried under reduced pressure at 40° C. for 2 hours by using a centrifugal evaporator. After drying, the resulting product was stored in a freezer at −80° C.
The samples obtained in (1) were returned to room temperature, to each of which 50 μL of 5 mmol/L ammonium formate containing 4 ng/μL of 2′-fluoro-2′-deoxycytidine monophosphate was then added, followed by stirring. 12.5 μL of the supernatant was transferred to a vial, and XMP in the samples was determined in the following determining conditions.
Amounts of XMP (%) were calculated according to the following equation, assuming that the XMP value of a non-Compound A treated group is defined as 100%.
Amount of XMP (%)=((peak area of XMP)/((peak area of 2′-fluoro-2′-deoxycytidine monophosphate)×(number of cells)))/((peak area of XMP of untreated group)/((peak area of 2′-fluoro-2′-deoxycytidine monophosphate of untreated group) (number of cells of untreated group)))×100
The decline rate of XMP (%) was calculated according to the following equation.
Decline rate of XMP (%)=100−amount of XMP (%)

[2] = test system: XMP in human myeloid leukemia cells K562; assay: XMP in human myeloid leukemia cells K562 (LC-MS/MS); format: cell-based; details: 24 hours, non-treated = 100%
Procedure: as §1
K562 (available from Riken BioResource Center) was used as a human myeloid leukemia cell.
2×10^7 human myeloid leukemia cells were suspended in a culture flask containing 18 mL of an RPMI1640 medium (manufactured by Life Technologies, Inc.). 2 mL of a PBS solution of the test compound (0 μg/mL, 10 μg/mL, 100 μg/mL, or 1000 μg/mL in terms of Compound A) was added to the flask which was then incubated at 37° C. under 5% CO2 for 24 hours. After centrifugation at 20° C. and 300×g for 3 min, the supernatant was removed and suspended in 10 mL of a PBS solution. Then, after centrifugation at 4° C. and 300×g for 5 min, the supernatant was removed. After stirring with addition of 1000 μL of methanol, 500 μL of ultrapure water was added thereto, followed by further stirring. 600 μL of the reaction solution was divided into each of two tubes, and 400 μL of chloroform was added to each tube. The reaction solution was stirred and then centrifuged at 4° C. and 10000×g for 15 min. 400 μL of the aqueous phase was recovered and added to an ultrafiltration tube, followed by centrifugation at 12° C. and 9200×g for 2 hours. The filtrates were combined and then dried under reduced pressure at 40° C. for 2 hours by using a centrifugal evaporator. After drying, the resulting product was stored in a freezer at −80° C.
The samples stored in (1) and (2) were returned to room temperature and 40 μL of ultrapure water was added to each sample. The mixture was stirred and centrifuged at 4° C. and 21500×g for 5 min. 35 μL of the supernatant was transferred to a vial. After storage at 4° C., XMP in samples was determined in the LC-MS/MS determination instrument, LC conditions and MS/MS conditions described in Example 3 (3).
Amounts of XMP (%) were calculated assuming that the XMP value of a non-Compound A treated group (peak area value) is defined as 100%.

NC(=O)c1nc[nH]c1O [Compound A, 5-Hydroxy-1H-imidazole-4-carboxamide]
Amount of each compound in whole blood (%) GMP (GMP in whole blood; Compound A 1 μg/mL): 85%
Amount of each compound in whole blood (%) GMP (GMP in whole blood; Compound A 10 μg/mL): 85%
Amount of each compound in whole blood (%) GMP (GMP in whole blood; Compound A 100 μg/mL): 91%
Amount of XMP (%) ([1]; SKM-1, Compound A 1 μg/mL): 57%
Decline rate of XMP ([1]; SKM-1, Compound A 1 μg/mL): 43%
Amount of XMP (%) ([1]; SKM-1, Compound A 10 μg/mL): 45%
Decline rate of XMP ([1]; SKM-1, Compound A 10 μg/mL): 55%
Amount of XMP (%) ([1]; SKM-1, Compound A 100 μg/mL): 17%
Decline rate of XMP ([1]; SKM-1, Compound A 100 μg/mL): 83%
Amount of XMP (%) K562 ([2]; Compound A 1 μg/mL): 52%
Amount of XMP (%) K562 ([2]; Compound A 10 μg/mL): 15%
Amount of XMP (%) K562 ([2]; Compound A 100 μg/mL): 6%
